Results from ChEMBL document CHEMBL4043103, “Design, synthesis, and biological evaluation of some novel indolizine derivatives as dual cyclooxygenase and lipoxygenase inhibitor for anti-inflammatory activity” (Bioorg Med Chem, 2017).

How the values were obtained:
Rattus norvegicus [1] = test: Anti inflammatory activity in carrageenan-induced Wistar rat paw edema model assessed as inhibition of left hind paw edema size at 10 mg/kg, po pretreated for 1 hr followed by carrageenan challenge measured after 2 hrs by plethysmometry method (reference value: 0%); assay type: functional
Rattus norvegicus [2] = test: Anti inflammatory activity in carrageenan-induced Wistar rat paw edema model assessed as inhibition of left hind paw edema size at 10 mg/kg, po pretreated for 1 hr followed by carrageenan challenge measured after 6 hrs by plethysmometry method (reference value: 0%); assay type: functional
Rattus norvegicus [3] = species: Rattus norvegicus; test: Gastrointestinal toxicity in adjuvant-induced Wistar rat arthritis model assessed as ulcer index treated for 7 days measured on day 21 post arthritis induction; conditions: in vivo, 168 h
Rattus norvegicus [4] = test: Anti inflammatory activity in carrageenan-induced Wistar rat paw edema model assessed as inhibition of left hind paw edema size at 10 mg/kg, po pretreated for 1 hr followed by carrageenan challenge measured after 4 hrs by plethysmometry method (reference value: 0%); assay type: functional
[5] = Solubility of the compound in DMSO by shake-flask method; assay type: physicochemical
[6] = Solubility of the compound in methanol by shake-flask method; assay type: physicochemical
Rattus norvegicus [7] = species: Rattus norvegicus; test: animal or person; conditions: Wistar, po, read-out: INH
Rattus norvegicus [8] = species: Rattus norvegicus; test: animal or person; conditions: Wistar, po, read-out: INH; remark: listed apart in the source
[9] = Solubility of the compound in water by shake-flask method; assay type: physicochemical; conditions: buffer
Rattus norvegicus [10] = species: Rattus norvegicus; test: animal or person; conditions: Wistar, po, read-out: INH; remark: listed apart in the source
[11] = Solubility of the compound in ethanol by shake-flask method; assay type: physicochemical
Rattus norvegicus [12] = species: Rattus norvegicus; test: animal or person; conditions: Wistar, po, read-out: INH; remark: listed apart in the source
[13] = n-Octanol-water partition coefficient, log P of the compound by shake-flask method; assay type: physicochemical
[14] = Solubility of the compound in chloroform by shake-flask method; assay type: physicochemical
[15] = Solubility of the compound in acetone by shake-flask method; assay type: physicochemical
RAW264.7 = test: Anti-inflammatory activity in mouse RAW264.7 cells assessed as reduction in LPS-induced NO production by Griess assay; assay type: functional, cell-based
[16] = Inhibition of soybean lipoxygenase preincubated for 5 mins followed by linoleic acid substrate addition measured after 20 mins by spectrophotometric method; set-up: species or system Glycine max
[17] = biological target: T1, Prostaglandin G/H synthase 1 (Ovis aries, UniProt P05979)
T1 sequence (P05979 whole entry): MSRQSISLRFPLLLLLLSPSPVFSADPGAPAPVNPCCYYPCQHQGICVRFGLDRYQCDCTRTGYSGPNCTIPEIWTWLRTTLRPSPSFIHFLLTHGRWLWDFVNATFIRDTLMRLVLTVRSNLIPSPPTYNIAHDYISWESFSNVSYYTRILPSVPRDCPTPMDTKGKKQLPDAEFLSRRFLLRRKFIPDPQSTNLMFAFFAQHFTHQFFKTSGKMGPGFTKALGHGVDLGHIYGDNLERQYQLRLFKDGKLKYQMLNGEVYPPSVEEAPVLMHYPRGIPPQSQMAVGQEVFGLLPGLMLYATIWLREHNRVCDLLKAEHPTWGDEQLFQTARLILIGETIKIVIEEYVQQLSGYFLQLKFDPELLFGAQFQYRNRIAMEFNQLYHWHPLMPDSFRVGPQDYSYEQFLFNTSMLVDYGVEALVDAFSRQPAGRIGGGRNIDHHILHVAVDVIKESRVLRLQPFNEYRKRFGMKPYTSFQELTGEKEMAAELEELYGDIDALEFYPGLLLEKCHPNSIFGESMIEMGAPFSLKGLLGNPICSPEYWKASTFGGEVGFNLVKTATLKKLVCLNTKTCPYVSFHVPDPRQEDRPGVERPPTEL
Description: Inhibition of ovine COX-1 preincubated for 5 mins followed by arachidonic acid substrate addition by colorimetric enzyme immunoassay

[18] = biological target: T2, Prostaglandin G/H synthase 2 (Homo sapiens, UniProt P35354); test: Non noncompetitive inhibition of human COX-2 preincubated for 5 mins followed by arachidonic acid substrate addition by Lineweaver-Burk plot analysis
T2 sequence (P35354 whole entry): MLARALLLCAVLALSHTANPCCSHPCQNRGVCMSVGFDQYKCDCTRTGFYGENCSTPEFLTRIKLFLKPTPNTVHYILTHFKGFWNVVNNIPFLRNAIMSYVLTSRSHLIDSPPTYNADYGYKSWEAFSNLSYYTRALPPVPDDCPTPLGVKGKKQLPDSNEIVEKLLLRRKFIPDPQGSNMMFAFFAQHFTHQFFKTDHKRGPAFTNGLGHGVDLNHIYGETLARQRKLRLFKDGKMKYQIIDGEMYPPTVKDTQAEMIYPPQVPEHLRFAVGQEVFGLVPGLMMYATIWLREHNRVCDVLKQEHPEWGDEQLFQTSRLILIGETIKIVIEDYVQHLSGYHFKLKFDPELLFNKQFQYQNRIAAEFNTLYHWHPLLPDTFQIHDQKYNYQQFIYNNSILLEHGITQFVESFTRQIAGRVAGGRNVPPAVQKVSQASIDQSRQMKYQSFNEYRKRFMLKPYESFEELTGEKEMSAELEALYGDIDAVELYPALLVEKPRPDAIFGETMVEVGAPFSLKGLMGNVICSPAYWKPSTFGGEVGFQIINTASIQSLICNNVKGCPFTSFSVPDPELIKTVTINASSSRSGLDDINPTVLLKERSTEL

[19] = biological target: T2, Prostaglandin G/H synthase 2
Description: Inhibition of human COX-2 preincubated for 5 mins followed by arachidonic acid substrate addition by colorimetric enzyme immunoassay

[20] = Non noncompetitive inhibition of soybean lipoxygenase preincubated for 5 mins followed by substrate addition measured after 20 mins by Lineweaver-Burk plot analysis; set-up: species or system Glycine max
Rattus norvegicus [21] = test: Anti inflammatory activity in arachidonic acid-induced Wistar rat paw edema model assessed as inhibition of right hind paw edema thickness at 10 mg/kg, po pretreated for 30 mins followed by arachidonic acid challenge measured after 1 hr (reference value: 0%); assay type: functional

solubility [5]	solubility [6]	solubility [9]	solubility [11]	logP [13]	solubility [14]	solubility [15]	SMILES	UI (Rattus norvegicus [3])	inhibition in vivo at 10 mg/kg (Rattus norvegicus [7])	inhibition in vivo at 10 mg/kg (Rattus norvegicus [8])	inhibition in vivo at 10 mg/kg (Rattus norvegicus [10])	inhibition in vivo at 10 mg/kg (Rattus norvegicus [12])	further results
Soluble	Soluble	Soluble	Soluble	2.07	Insoluble	Soluble	NCc1c(-c2ccc3c(c2)OCO3)c(C(=O)O)c2ccccn12	–	78.1%	23.1%	74.4%	61.9%	–
Soluble	Soluble	Soluble	Soluble	0.72	Insoluble	Soluble	Cc1c(C(=O)O)c2ccccn2c1CN	–	38.5%	23.1%	44.2%	41.3%	–
Soluble	Soluble	Soluble	Soluble	2.12	Insoluble	Soluble	NCc1c(-c2ccc(F)cc2)c(C(=O)O)c2ccccn12	–	86.4%	61.5%	89.5%	69.8%	–
Soluble	Soluble	Soluble	Soluble	1.45	Insoluble	Soluble	CCc1c(C(=O)O)c2ccccn2c1CN	–	34.3%	20.2%	32.5%	30.2%	–
Soluble	Soluble	Soluble	Soluble	2.07	Insoluble	Soluble	CCCCc1c(C(=O)O)c2ccccn2c1CN	–	23.9%	15.4%	24.4%	23.8%	–
Soluble	Soluble	Soluble	Soluble	1.85	Insoluble	Soluble	NCc1c(-c2ccccc2)c(C(=O)O)c2ccccn12	10	88.6%	66.2%	90.5%	68.2%	IC50 [16]: 13.1 µM; Ki [18]: 0.92 µM; IC50 [19]: 14.9 µM; IC50 [17]: > 50 µM; Ki [20]: 0.72 µM
Soluble	Soluble	Soluble	Soluble	1.55	Insoluble	Soluble	COc1cc(-c2c(C(=O)O)c3ccccn3c2CN)ccc1O	–	59.4%	36.9%	63.9%	50.8%	–

The remaining lines, values behind:

SMILES	solubility [5]	solubility [6]	solubility [9]	solubility [11]	logP [13]	solubility [14]	solubility [15]	UI (Rattus norvegicus [3])	inhibition in vivo at 10 mg/kg (Rattus norvegicus [7])	inhibition in vivo at 10 mg/kg (Rattus norvegicus [8])	inhibition in vivo at 10 mg/kg (Rattus norvegicus [10])	inhibition in vivo at 10 mg/kg (Rattus norvegicus [12])	further results
O=C(O)Cc1ccccc1Nc1c(Cl)cccc1Cl [DICLOFENAC]	–	–	–	–	–	–	–	46	–	–	–	–	inhibition in vivo at 10 mg/kg (Rattus norvegicus [1]): 74.6%; inhibition in vivo at 10 mg/kg (Rattus norvegicus [2]): 90.9%; inhibition in vivo at 10 mg/kg (Rattus norvegicus [4]): 91.6%
Cc1ccc2n1[C@@H]1[C@H]3O[C@]([C@H](C)O)(C=C2)[C@H]1c1cc([C@H]2C=Cc4ccc(C)n4[C@@H]2C)cn1[C@@H]3C	–	–	–	–	–	–	–	–	–	–	–	–	IC50 (RAW264.7): 5.31 µM
CC1(C)Cc2c(-c3ccccc3)c(-c3ccc(Cl)cc3)c(CC(=O)O)n2C1 [LICOFELONE]	–	–	–	–	–	–	–	–	–	–	–	–	IC50 [16]: 0.21 µM; IC50 [17]: 0.16 µM
Cc1ccc(-c2cc(C(F)(F)F)nn2-c2ccc(S(N)(=O)=O)cc2)cc1 [CELECOXIB]	–	–	–	–	–	–	–	53	–	–	–	–	–
NCc1c(-c2ccc(C(F)(F)F)cc2)c(C(=O)O)c2ccccn12	Soluble	Soluble	Soluble	Soluble	2.06	Insoluble	Soluble	–	67.7%	40%	62.8%	42.8%	–
CC(c1cc2ccccc2s1)N(O)C(N)=O (stereo not given) [ZILEUTON]	–	–	–	–	–	–	–	52	–	–	–	–	IC50 [16]: 3.43 µM; inhibition in vivo at 10 mg/kg (Rattus norvegicus [21]): 72.3%
